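These data come from cells grown in 96-well plates and exposed to compound for 48 hours at five concentrations. GI50 = concentration required for 50% inhibition of growth.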 Active and inactive are the calls of the source. No stated cut-off is given here; in the data, active = GI50 up to about 1.1 µM and inactive = higher.
Experiments:
Test in all cases: NCI anticancer screen, dose series, 48 h
786-0 = test system: 786-0
A498 = test system: A498
A549 = test system: A549
ACHN = test system: ACHN
BT-549 = test system: BT-549
CAKI-1 = test system: CAKI-1
CCRF-CEM = test system: CCRF-CEM
COLO 205 = test system: COLO 205
DU-145 = test system: DU-145
EKVX = test system: EKVX
HCC 2998 = test system: HCC 2998
HCT-116 = test system: HCT-116
HCT-15 = test system: HCT-15
HL-60 = test system: HL-60
HOP-62 = test system: HOP-62
HOP-92 = test system: HOP-92
HT-29 = test system: HT-29
Hs-578T = test system: Hs-578T
IGROV-1 = test system: IGROV-1
K562 = test system: K562
KM12 = test system: KM12
LOX IMVI = test system: LOX IMVI
M14 = test system: M14
MCF7 = test system: MCF7
MDA-MB-231 = test system: MDA-MB-231
MDA-MB-435 = test system: MDA-MB-435
MDA-N = test system: MDA-N
MOLT-4 = test system: MOLT-4
Malme-3M = test system: Malme-3M
NCI-H226 = test system: NCI-H226
NCI-H23 = test system: NCI-H23
NCI-H460 = test system: NCI-H460
NCI-H522 = test system: NCI-H522
NCI/ADR-RES = test system: NCI/ADR-RES
OVCAR-4 = test system: OVCAR-4
OVCAR-5 = test system: OVCAR-5
OVCAR-8 = test system: OVCAR-8
PC-3 = test system: PC-3
RPMI-8226 = test system: RPMI-8226
RXF 393 = test system: RXF 393
SF-268 = test system: SF-268
SF-295 = test system: SF-295
SK-MEL-28 = test system: SK-MEL-28
SK-MEL-2 = test system: SK-MEL-2
SK-MEL-5 = test system: SK-MEL-5
SK-OV-3 = test system: SK-OV-3
SN12C = test system: SN12C
SNB-19 = test system: SNB-19
SNB-75 = test system: SNB-75
SR = test system: SR
SW-620 = test system: SW-620
T47D = test system: T47D
TK-10 = test system: TK-10
U-251 = test system: U-251
UACC-257 = test system: UACC-257
UACC-62 = test system: UACC-62
UO-31 = test system: UO-31
OVCAR-3 = test system: OVCAR-3
SF-539 = test system: SF-539

CC1=NN=C(N)NC1=CC(Sc1ccc(Cl)cc1)c1c(O)ccc2ccccc12 (stereo not given)
GI50 (786-0): 25.5 µM (inactive) | GI50 (A498): 18.7 µM (inactive) | GI50 (A549): 28.9 µM (inactive) | GI50 (ACHN): 5.16 µM (inactive) | GI50 (BT-549): 13.6 µM (inactive) | GI50 (CAKI-1): 23.7 µM (inactive) | GI50 (CCRF-CEM): 4.73 µM (inactive) | GI50 (COLO 205): 16.9 µM (inactive) | GI50 (DU-145): 16.1 µM (inactive) | GI50 (EKVX): 18 µM (inactive) | GI50 (HCC 2998): 16.7 µM (inactive) | GI50 (HCT-116): 18.9 µM (inactive) | GI50 (HCT-15): 16.3 µM | GI50 (HL-60): > 10 µM (inactive) | GI50 (HOP-62): 20.2 µM (inactive) | GI50 (HOP-92): 20.3 µM (inactive) | GI50 (HT-29): 20.5 µM (inactive) | GI50 (Hs-578T): 5.25 µM (inactive) | GI50 (IGROV-1): 13 µM (inactive) | GI50 (K562): 38.5 µM (inactive) | GI50 (KM12): 14.5 µM (inactive) | GI50 (LOX IMVI): 19.3 µM (inactive) | GI50 (M14): 11.9 µM (inactive) | GI50 (MCF7): 20 µM (inactive) | GI50 (MDA-MB-231): 21.1 µM (inactive) | GI50 (MDA-MB-435): 19.6 µM (inactive) | GI50 (MDA-N): 28.2 µM (inactive) | GI50 (MOLT-4): 21.1 µM (inactive) | GI50 (Malme-3M): 3.88 µM (inactive) | GI50 (NCI-H226): 4.55 µM (inactive) | GI50 (NCI-H23): 15.1 µM (inactive) | GI50 (NCI-H460): 17.4 µM (inactive) | GI50 (NCI-H522): 15.5 µM (inactive) | GI50 (NCI/ADR-RES): 20.2 µM (inactive) | GI50 (OVCAR-4): 16.8 µM (inactive) | GI50 (OVCAR-5): 23.1 µM (inactive) | GI50 (OVCAR-8): 16.7 µM (inactive) | GI50 (PC-3): 16.1 µM (inactive) | GI50 (RPMI-8226): 13.5 µM (inactive) | GI50 (RXF 393): 4.75 µM (inactive) | GI50 (SF-268): 11.3 µM (inactive) | GI50 (SF-295): 4.21 µM (inactive) | GI50 (SK-MEL-28): 14 µM (inactive) | GI50 (SK-MEL-2): 5.02 µM (inactive) | GI50 (SK-MEL-5): 8.07 µM (inactive) | GI50 (SK-OV-3): 18.3 µM (inactive) | GI50 (SN12C): 19 µM (inactive) | GI50 (SNB-19): 20.6 µM (inactive) | GI50 (SNB-75): 18.6 µM (inactive) | GI50 (SR): 17.4 µM (inactive) | GI50 (SW-620): 24.8 µM (inactive) | GI50 (T47D): 8.51 µM (inactive) | GI50 (TK-10): 26.5 µM (inactive) | GI50 (U-251): 18.3 µM (inactive) | GI50 (UACC-257): 20.9 µM (inactive) | GI50 (UACC-62): 9.35 µM (inactive) | GI50 (UO-31): 6.07 µM (inactive)

O=C(O)[C@@H]1C[C@@H](O)CN1
GI50 (786-0): > 100 µM (inactive) | GI50 (A498): > 100 µM (inactive) | GI50 (A549): > 100 µM (inactive) | GI50 (ACHN): > 100 µM (inactive) | GI50 (BT-549): > 100 µM (inactive) | GI50 (CAKI-1): > 100 µM (inactive) | GI50 (CCRF-CEM): > 100 µM (inactive) | GI50 (COLO 205): > 100 µM (inactive) | GI50 (DU-145): > 100 µM (inactive) | GI50 (EKVX): > 100 µM (inactive) | GI50 (HCC 2998): > 100 µM (inactive) | GI50 (HCT-116): > 100 µM (inactive) | GI50 (HCT-15): > 100 µM | GI50 (HL-60): > 100 µM (inactive) | GI50 (HOP-62): > 100 µM (inactive) | GI50 (HOP-92): > 100 µM (inactive) | GI50 (HT-29): > 100 µM (inactive) | GI50 (Hs-578T): > 100 µM (inactive) | GI50 (IGROV-1): > 100 µM (inactive) | GI50 (K562): > 100 µM (inactive) | GI50 (KM12): > 100 µM (inactive) | GI50 (LOX IMVI): > 100 µM (inactive) | GI50 (M14): > 100 µM (inactive) | GI50 (MCF7): > 100 µM (inactive) | GI50 (MDA-MB-231): > 100 µM (inactive) | GI50 (MDA-MB-435): > 100 µM (inactive) | GI50 (MDA-N): > 100 µM (inactive) | GI50 (MOLT-4): > 100 µM (inactive) | GI50 (Malme-3M): > 100 µM (inactive) | GI50 (NCI-H226): > 100 µM (inactive) | GI50 (NCI-H23): > 100 µM (inactive) | GI50 (NCI-H460): > 100 µM (inactive) | GI50 (NCI/ADR-RES): > 100 µM (inactive) | GI50 (OVCAR-3): > 100 µM (inactive) | GI50 (OVCAR-4): > 100 µM (inactive) | GI50 (OVCAR-5): > 100 µM (inactive) | GI50 (OVCAR-8): > 100 µM (inactive) | GI50 (PC-3): > 100 µM (inactive) | GI50 (RPMI-8226): > 100 µM (inactive) | GI50 (RXF 393): > 100 µM (inactive) | GI50 (SF-268): > 100 µM (inactive) | GI50 (SF-295): > 100 µM (inactive) | GI50 (SF-539): > 100 µM (inactive) | GI50 (SK-MEL-28): > 100 µM (inactive) | GI50 (SK-MEL-2): > 100 µM (inactive) | GI50 (SK-MEL-5): > 100 µM (inactive) | GI50 (SK-OV-3): > 100 µM (inactive) | GI50 (SN12C): > 100 µM (inactive) | GI50 (SNB-19): > 100 µM (inactive) | GI50 (SNB-75): > 100 µM (inactive) | GI50 (SR): > 100 µM (inactive) | GI50 (SW-620): > 100 µM (inactive) | GI50 (T47D): > 100 µM (inactive) | GI50 (TK-10): > 100 µM (inactive) | GI50 (U-251): > 100 µM (inactive) | GI50 (UACC-257): > 100 µM (inactive) | GI50 (UACC-62): > 100 µM (inactive) | GI50 (UO-31): > 100 µM (inactive)

Reference: ChEMBL document CHEMBL1201862, “PubChem BioAssay data set” (2004)
